Measurements as given in paper PMC12517324, “Hyperagonism of a Vitamin D Receptor Agonist/Histone Deacetylase Inhibitor Hybrid Molecule” (Journal of Medicinal Chemistry, 2025).

Target: HDAC2 (Homo sapiens, UniProt Q92769)
Test: Inhibition of purified HDAC2, Boc-Lys(Ac)-AMC substrate
Format: biochemical
Parameters: purchased Cayman Chemical
Conditions: 1 h 37 °C

HDAC2, sequence (Q92769 whole entry): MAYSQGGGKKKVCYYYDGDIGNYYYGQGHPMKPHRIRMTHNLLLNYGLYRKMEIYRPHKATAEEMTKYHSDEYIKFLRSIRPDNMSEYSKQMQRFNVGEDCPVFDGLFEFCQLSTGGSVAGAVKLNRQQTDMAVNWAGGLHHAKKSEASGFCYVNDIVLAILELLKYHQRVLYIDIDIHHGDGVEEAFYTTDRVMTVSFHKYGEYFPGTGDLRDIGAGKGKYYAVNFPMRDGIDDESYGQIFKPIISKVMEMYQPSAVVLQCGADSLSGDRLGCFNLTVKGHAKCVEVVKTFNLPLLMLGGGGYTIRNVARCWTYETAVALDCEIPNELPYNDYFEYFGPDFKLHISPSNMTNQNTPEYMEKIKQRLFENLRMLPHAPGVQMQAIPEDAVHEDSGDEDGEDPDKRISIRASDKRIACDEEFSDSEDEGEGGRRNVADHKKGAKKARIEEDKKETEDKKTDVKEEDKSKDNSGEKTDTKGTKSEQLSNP

- IC50: 4.18 µM
Compound: CCC(CC)(c1ccc(OCCCCCC(=O)NO)cc1)c1ccc(OCC(O)C(C)(C)C)c(C)n1 (stereo not shown) [AM-193]
